Data on 22 compounds can be found in patent US8541598B2, “Biodegradable solvents for the chemical industry” (Dublin City University, priority 2007, dated 2013).

“Also recorded” adds a separate entry of the source. Like-named read-outs stand apart in the source and are kept apart here. Where only a bound is given, the exact number is not on record here.

Series [1] is described as follows: Antimicrobial activity / minimum inhibitory concentrations on seven strains of bacteria. The series is classed as cell-based. The settings on record: read-out: MIC values. The protocol:
(§1) Seven strains of bacteria were used in the assessment of the antimicrobial activity of the ILs claimed: 4 gram negative and three gram positive as shown below.
(§2) A wide concentration range was tested (0-20000 μg/ml). The concentrations screened for antibacterial activity are generally from 2 μg/ml to 1000 μg/ml (Table 6). […] The concentration range screened for the ILs containing ethers was up to 20000 μg/ml. At these high concentrations a lack of antibacterial activity is a significant result.

The test system of series [2] is Pseudomonas aeruginosa, Escherichia coli, Klebsiella sp., Salmonella sp., Staphylococcus aureus, Enterococcus sp., Bacillus subtilis. Described as above. The series is classed as cell-based. The conditions noted are these: seven strains of bacteria. The protocol: as §1, §2
Series [3] deals with microbes. The settings on record: literature (Bodor et al.); cited from earlier work.
Series [4] concerns E. coli. Put plainly: Percentage kill of bacteria by KG20. In kind it is cell-based, Escherichia coli. The source says: (§3) A test reference study with 1-methyl-3-decyloxy-carbonyl methylimidazole bromide salt KG20, known to be toxic due to the long alkyl chain, has been completed to provide reference data. This experiment compares, for the same side chain length, the impact of the presence of the oxygen (e.g. KG15) on toxicity.

Series [5] has as its system P. aeruginosa. Put plainly: Percentage kill of bacteria by KG20. In kind it is cell-based, Pseudomonas aeruginosa.
From the text: as §3

The subject of series [6] is Enterococcus sp. The series can be described thus: Percentage kill of bacteria by KG20. In kind it is cell-based.
From the text: as §3

Series [7] concerns Klebsiella sp. Put plainly: Percentage kill of bacteria by KG20. The series is classed as cell-based.
From the text: as §3

The test system of series [8] is Salmonella sp. Put plainly: Percentage kill of bacteria by KG20. The series is classed as cell-based.
From the text: as §3

Series [9] deals with S. aureus. The series can be described thus: Percentage kill of bacteria by KG20. In kind it is cell-based, Staphylococcus aureus.
From the text: as §3

The subject of series [10] is B. subtilis. Put plainly: Percentage kill of bacteria by KG20. In kind it is cell-based, Bacillus subtilis.
From the text: as §3

The mark [11] stands for this setting: seven strains, not split, range tested 0-20000 μg/ml.

`COCCOCCOC(=O)C[n+]1ccn(C)c1C` [KG45, 2,3-dimethyl-1-(2-[2-methoxyethoxy]ethoxycarbonylmethyl)imidazolium octylsulfate]: the MIC (in general, the lowest concentration found to suppress growth) in series [1] amounted to 10 mg/mL. Besides, the “toxicity / antibacterial activity in words” value in series [2] is “non-toxic”.
Consider `CCC(C)OCCOC(=O)Cn1cc[n+](C)c1.[Br-]` (stereo not drawn) [KG10, 3-methyl-1-(2-[2-butoxy]ethoxycarbonylmethyl)imidazolium bromide], for which the minimal inhibitory concentration (MIC) in [1] (setting [11]) is more than 20 mg/mL. For the same compound, the “toxicity / antibacterial activity in words” value in [2] is “non-toxic”.
Take `CCOCCOCCOC(=O)Cn1cc[n+](C)c1.[Br-]` [KG13, 3-methyl-1-(2-[2-ethoxyethoxy]ethoxycarbonylmethyl)imidazolium bromide]: the MIC in series [1] was more than 20 mg/mL. In addition, the “toxicity / antibacterial activity in words” value in series [2] was “non-toxic”.
As to `CCCCOCCOC(=O)C[n+]1ccn(C)c1` [KG39, 3-methyl-1-(2-[2-butoxy]ethoxycarbonylmethyl)imidazolium octylsulfate], in series [1] (setting [11]), the minimum inhibitory concentration (MIC) was more than 20 mg/mL. Besides, the “toxicity / antibacterial activity in words” value in series [2] is recorded as “non-toxic”.
Turning to `CCC(C)OCCOC(=O)Cn1cc[n+](C)c1C.[Br-]` (stereo not drawn) [KG16, 2,3-dimethyl-1-(2-[2-butoxy]ethoxycarbonylmethyl)imidazolium bromide], the minimal inhibitory concentration (MIC) in [1] is more than 20 mg/mL. For the same compound, the “toxicity / antibacterial activity in words” value in series [2] is on record as “non-toxic”.
For `COCCOCCOC(=O)Cn1cc[n+](C)c1.[Br-]` [KG12, 3-methyl-1-(2-[2-methoxyethoxy]ethoxycarbonylmethyl)imidazolium bromide], the MIC in series [1] (setting [11]) is more than 20 mg/mL. Also, the “toxicity / antibacterial activity in words” value in series [2] was “non-toxic”.
Regarding `CCOCCOCCOC(=O)C[n+]1ccn(C)c1` [KG41, 3-methyl-1-(2-[2-ethoxyethoxy]ethoxycarbonylmethyl)imidazolium octylsulfate], the MIC in series [1] was 10 mg/mL. Moreover, in [2], the “toxicity / antibacterial activity in words” value is reported as “non-toxic”.
`COCCOCCOC(=O)Cn1cc[n+](C)c1C.[Br-]` [KG18, 2,3-dimethyl-1-(2-[2-methoxyethoxy]ethoxycarbonylmethyl)imidazolium bromide]: the MIC in [1] (setting [11]) is more than 20 mg/mL. The “toxicity / antibacterial activity in words” value in [2] is “non-toxic”.
As for `CCCCOC(=O)C[n+]1ccn(C)c1` [KG34, 3-methyl-1-(butoxycarbonylmethyl)imidazolium octylsulfate], the minimal inhibitory concentration (MIC) in [1] (setting [11]) turned out to be 5 mg/mL. The “toxicity / antibacterial activity in words” value in [2] is given as “non-toxic”.
On to `CCCCCCCCCCCC(=O)OCn1cc[n+](C)c1.[Cl-]` [compound 6, 1-[(n-Dodecanoyloxy)methyl]-3-methylimidazolium Chloride], for which the “antimicrobial activity in words” value in [3] is reported as “effective antimicrobial activity at ppm concentrations; also recorded: potent antibacterials”.
Turning to `CCOCCOC(=O)Cn1cc[n+](C)c1.[Br-]` [KG8, 3-methyl-1-(2-[2-ethoxy]ethoxycarbonylmethyl)imidazolium bromide], the minimum inhibitory concentration (MIC) in series [1] (setting [11]) was more than 20 mg/mL. In series [2], the “toxicity / antibacterial activity in words” value is recorded as “non-toxic”.
As for `CCCCCCCCCCOC(=O)Cn1cc[n+](C)c1.[Br-]` [KG20, 3-methyl-1-(decanoxycarbonylmethyl)imidazolium bromide], the “toxicity / antibacterial activity in words” value in [2] is listed as “toxic to all the different bacteria screened; also recorded: potent antibacterial”. The Percentage kill in series [4] (3.9 μg/ml) was 10%; in series [4] (7.8 μg/ml), 8.5%; in [4] (15.62 μg/ml) it was 17%; in series [4] (31.25 μg/ml), 28%; in series [4] (62.5 μg/ml), 37%; in [4] (125 μg/ml) it was 92%. In addition, the Percentage kill in series [4] (250 μg/ml) is 92%; in [4] (500 μg/ml), 82%; in series [4] (1000 μg/ml) it was 91%; in series [5] (3.9 μg/ml), 0%; in series [5] (7.8 μg/ml), 0%; in series [5] (15.62 μg/ml), 0%. Also, the Percentage kill is listed as 6% in [5] (31.25 μg/ml); 0% in series [5] (62.5 μg/ml); 55.5% in series [5] (125 μg/ml); 82% in series [5] (250 μg/ml); 82% in series [5] (500 μg/ml); 100% in [5] (1000 μg/ml). Moreover, the Percentage kill is 6.5% in [6] (3.9 μg/ml); 6% in series [6] (7.8 μg/ml); 23% in series [6] (15.62 μg/ml); 18.7% in [6] (31.25 μg/ml); 48.7% in [6] (62.5 μg/ml); 49.5% in [6] (125 μg/ml). Moreover, the Percentage kill is reported as 83.4% in series [6] (250 μg/ml); 84% in [6] (500 μg/ml); 96.4% in series [6] (1000 μg/ml); 0% in [7] (3.9 μg/ml); 0% in series [7] (7.8 μg/ml); 0% in series [7] (15.62 μg/ml). For the same compound, the Percentage kill in series [7] (31.25 μg/ml) is reported as 0%; in series [7] (62.5 μg/ml), 7%; in series [7] (125 μg/ml) it was 21%; in [7] (250 μg/ml), 64%; in series [7] (500 μg/ml), 68.2%; in [7] (1000 μg/ml), 91.8%. Moreover, the Percentage kill stood at 0% in series [8] (3.9 μg/ml); 0% in [8] (7.8 μg/ml); 0% in series [8] (15.62 μg/ml); 0% in [8] (31.25 μg/ml); 10% in series [8] (62.5 μg/ml); 58% in series [8] (125 μg/ml). The Percentage kill in series [8] (250 μg/ml) is recorded as 73.5%; in series [8] (500 μg/ml), 88%; in series [8] (1000 μg/ml), 86%; in series [9] (3.9 μg/ml), 66%; in series [9] (7.8 μg/ml), 90%; in series [9] (15.62 μg/ml) it was 88.2%. Moreover, the Percentage kill in series [9] (31.25 μg/ml) was determined as 86.4%; in [9] (62.5 μg/ml) it was 90.3%; in series [9] (125 μg/ml), 80.7%; in series [9] (250 μg/ml), 93.8%; in [9] (500 μg/ml), 96%; in [10] (3.9 μg/ml) it was 0%. Moreover, the Percentage kill in series [10] (7.8 μg/ml) worked out at 0%; in series [10] (15.62 μg/ml), 0%; in [10] (31.25 μg/ml) it was 0%; in series [10] (62.5 μg/ml) it was 0%; in [10] (125 μg/ml), 80.2%; in series [10] (250 μg/ml) it was 81.5%. Besides, the Percentage kill came out at 83.2% in series [10] (500 μg/ml) and 100% in [10] (1000 μg/ml).
On to `CCCCCOC(=O)C[n+]1ccn(C)c1` [KG35, 3-methyl-1-(pentoxycarbonylmethyl)imidazolium octylsulfate], for which the MIC in series [1] (setting [11]) was more than 20 mg/mL. Besides, in series [2], the “toxicity / antibacterial activity in words” value was “non-toxic”.
On the same counts, the results for `CCCOCCOCCOC(=O)Cn1cc[n+](C)c1.[Br-]` [KG14, 3-methyl-1-(2-[2-propoxyethoxy]ethoxycarbonylmethyl)imidazolium bromide] are more than 20 mg/mL and “non-toxic”.
For the compound `CC(C)OCCOC(=O)Cn1cc[n+](C)c1.[Br-]` [KG9, 3-methyl-1-(2-[2-propoxy]ethoxycarbonylmethyl)imidazolium bromide], the minimum inhibitory concentration (MIC) in [1] (setting [11]) was more than 20 mg/mL. The “toxicity / antibacterial activity in words” value in [2] is given as “non-toxic”.
With `CCCCOCCOCCOC(=O)C[n+]1ccn(C)c1` [KG43, 3-methyl-1-(2-[2-butoxyethoxy]ethoxycarbonylmethyl)imidazolium octylsulfate], the MIC in [1] (setting [11]) worked out at 10 mg/mL. For the same compound, the “toxicity / antibacterial activity in words” value in series [2] is listed as “non-toxic”.
On the same counts, the results for `COCCN(CCOC)C(=O)C[n+]1ccn(C)c1` [KG405] are more than 20 mg/mL and “low toxicity; also recorded: non-toxic”.
As for `COCCOCCOC(=O)C[n+]1ccn(C)c1` [KG40, 3-methyl-1-(2-[2-methoxyethoxy]ethoxycarbonylmethyl)imidazolium octylsulfate], in [1] (setting [11]), the MIC is more than 20 mg/mL. In addition, the “toxicity / antibacterial activity in words” value in [2] is recorded as “non-toxic”.
`CCCOCCOCCOC(=O)C[n+]1ccn(C)c1` [KG42, 3-methyl-1-(2-[2-propoxyethoxy]ethoxycarbonylmethyl)imidazolium octylsulfate]: the minimum inhibitory concentration (MIC) in [1] (setting [11]) was more than 20 mg/mL. In series [2], the “toxicity / antibacterial activity in words” value is recorded as “non-toxic”.
As to `CCCCOCCOCCOC(=O)Cn1cc[n+](C)c1.[Br-]` [KG15, 3-methyl-1-(2-[2-butoxyethoxy]ethoxycarbonylmethyl)imidazolium bromide], the minimal inhibitory concentration (MIC) in series [1] (setting [11]) is more than 20 mg/mL. In addition, the “toxicity / antibacterial activity in words” value in series [2] is “non-toxic”; in [2] (listed as KG 15), “low toxicity”.
For the compound `CCCCOCCOC(=O)C[n+]1ccn(C)c1C` [KG44], the minimal inhibitory concentration (MIC) in series [1] is more than 20 mg/mL. Also, the “toxicity / antibacterial activity in words” value in [2] is on record as “non-toxic”.
For `CCCOCCOC(=O)C[n+]1ccn(C)c1` [KG38, 3-methyl-1-(2-[2-propoxy]ethoxycarbonylmethyl)imidazolium octylsulfate], the MIC in series [1] (setting [11]) was more than 20 mg/mL. Also, the “toxicity / antibacterial activity in words” value in series [2] is on record as “non-toxic”.
